By IC50 is commonly meant the concentration at which inhibition is half-maximal.

IC50 data for ten compounds are collected here from US20120083476A1, “HETEROARYL-SUBSTITUTED SPIROCYCLIC DIAMINE UREA MODULATORS OF FATTY ACID AMIDE HYDROLASE” (Janssen Pharmaceutica NV, priority 2009, published 2012).

Assay [1] deals with T1, Rat FAAH (Rattus norvegicus, UniProt P97612).
T1 construct: expressed in transfected cells; host or cells: SK-N-MC cells stably transfected with rat FAAH cDNA (G418 selection)
T1 sequence (P97612 1-579): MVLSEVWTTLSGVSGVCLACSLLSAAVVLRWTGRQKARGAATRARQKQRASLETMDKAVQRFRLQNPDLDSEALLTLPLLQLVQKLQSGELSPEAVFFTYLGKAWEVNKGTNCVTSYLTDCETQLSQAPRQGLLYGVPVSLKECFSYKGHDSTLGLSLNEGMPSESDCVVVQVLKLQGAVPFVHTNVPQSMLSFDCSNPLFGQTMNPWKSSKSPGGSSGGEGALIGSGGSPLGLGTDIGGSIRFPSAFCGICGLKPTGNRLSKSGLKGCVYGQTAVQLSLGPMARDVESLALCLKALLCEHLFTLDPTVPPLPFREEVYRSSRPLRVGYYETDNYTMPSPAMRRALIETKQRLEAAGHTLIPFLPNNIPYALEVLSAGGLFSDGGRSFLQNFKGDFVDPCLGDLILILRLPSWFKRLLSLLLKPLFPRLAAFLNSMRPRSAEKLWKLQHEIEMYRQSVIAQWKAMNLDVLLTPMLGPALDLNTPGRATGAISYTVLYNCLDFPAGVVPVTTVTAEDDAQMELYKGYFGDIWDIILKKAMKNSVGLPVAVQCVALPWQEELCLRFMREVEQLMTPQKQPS
The experiment in a line: Assay Method 2: rat FAAH assay (3H-anandamide hydrolysis in cell homogenate). The assay is classed as biochemical. In outline:
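Homogenates of T84 cells or SK-N-MC cells stably transfected with rat FAAH, in pH 9 Tris/EDTA/glycerol/Triton buffer, incubated 1 h at room temperature with 3H-anandamide. Released labeled ethanolamine separated from substrate on activated charcoal and counted by scintillation; values averaged over runs.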

Assay [2] concerns the target T2, FAAH (Homo sapiens, UniProt O00519).
T2 sequence (O00519 1-579): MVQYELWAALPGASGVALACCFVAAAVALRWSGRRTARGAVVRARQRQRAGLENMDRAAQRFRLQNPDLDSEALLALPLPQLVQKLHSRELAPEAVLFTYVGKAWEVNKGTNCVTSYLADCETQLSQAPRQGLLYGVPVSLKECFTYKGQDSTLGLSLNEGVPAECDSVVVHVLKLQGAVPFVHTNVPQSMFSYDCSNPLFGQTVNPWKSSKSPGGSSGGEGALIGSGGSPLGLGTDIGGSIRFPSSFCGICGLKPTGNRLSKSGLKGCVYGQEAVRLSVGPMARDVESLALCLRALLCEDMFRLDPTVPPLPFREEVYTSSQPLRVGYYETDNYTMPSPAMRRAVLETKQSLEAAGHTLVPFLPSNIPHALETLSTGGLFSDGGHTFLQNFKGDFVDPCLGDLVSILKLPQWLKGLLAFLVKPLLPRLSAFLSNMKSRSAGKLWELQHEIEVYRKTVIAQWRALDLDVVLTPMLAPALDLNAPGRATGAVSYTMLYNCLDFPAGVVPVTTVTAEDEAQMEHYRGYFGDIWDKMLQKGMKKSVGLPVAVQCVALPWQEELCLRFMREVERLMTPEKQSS
The experiment in a line: Assay Method 1: human FAAH assay (3H-anandamide hydrolysis in cell homogenate). It is filed as biochemical. The arrangement: expressed in transfected cells; host or cells: SK-N-MC cells stably transfected with human FAAH cDNA (G418 selection); alternatively T84 cell pellets. The procedure, abridged: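 Homogenates of T84 cells or SK-N-MC cells stably transfected with human FAAH, in pH 9 Tris/EDTA buffer with 0.02% Triton X-100. Incubated 1 h at rt with compound and 80 nM (final) [3H-ethanolamine]-anandamide. Released 3H-ethanolamine separated on charcoal filters and counted by scintillation.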

Where a name gives a salt, the structure may show the parent alone. Read-outs that look alike come from different tables or passages of the source.

Regarding `O=C(Nc1ccc(-n2nccn2)cc1)N1CC2(CCN(Cc3cccc(Oc4ccc(Cl)cc4)c3)CC2)C1` [Example 41, 7-[3-(4-Chloro-phenoxy)-benzyl]-2,7-diaza-spiro[3.5]nonane-2-carboxylic acid (4-[1,2,3]triazol-2-yl-phenyl)-amide, trifluoroacetic acid salt], the IC50 in assay [1] (read-out: Assay 2 IC50) was determined as 0.08 µM; in assay [2] (read-out: Assay 1 IC50), 0.02 µM.
Taken in the same sequence, the figures for `O=C(Nc1ncccn1)N1CC2(CCN(Cc3cccc(Oc4ccc(Cl)cc4)c3)CC2)C1` [Example 42, 7-[3-(4-Chloro-phenoxy)-benzyl]-2,7-diaza-spiro[3.5]nonane-2-carboxylic acid pyrimidin-2-ylamide, trifluoroacetic acid salt] were 1 µM and greater than 10 µM.
Consider `O=C(Nc1ccncn1)N1CC2(CCN(Cc3cccc(Oc4ccc(Cl)cc4)c3)CC2)C1` [Example 43, 7-[3-(4-Chloro-phenoxy)-benzyl]-2,7-diaza-spiro[3.5]nonane-2-carboxylic acid pyrimidin-4-ylamide, trifluoroacetic acid salt], for which the results for the IC50 in assay [1] and in assay [2] were 5.44 µM and 5.66 µM, respectively.
In the case of `O=C(Nc1cccnn1)N1CC2(CCN(Cc3cccc(Oc4ccc(Cl)cc4)c3)CC2)C1` [Example 44, 7-[3-(4-Chloro-phenoxy)-benzyl]-2,7-diaza-spiro[3.5]nonane-2-carboxylic acid pyridazin-3-ylamide, trifluoroacetic acid salt], the values for the IC50 in assay [1] and in assay [2] (read-out: Assay 1 IC50) were 0.26 µM and 0.43 µM, respectively.
Consider `O=C(Nc1ccc(-n2cccn2)nc1)N1CC2(CCN(Cc3cccc(Oc4ccc(Cl)cc4)c3)CC2)C1` [Example 45, 7-[3-(4-Chloro-phenoxy)-benzyl]-2,7-diaza-spiro[3.5]nonane-2-carboxylic acid (6-pyrazol-1-yl-pyridin-3-yl)-amide, trifluoroacetic acid salt], for which the IC50 in assay [1] (read-out: Assay 2 IC50) amounted to 0.1 µM; in assay [2] (read-out: Assay 1 IC50) it was 0.04 µM.
For `O=C(Nc1ccc(-n2cncn2)nc1)N1CC2(CCN(Cc3cccc(Oc4ccc(Cl)cc4)c3)CC2)C1` [Example 46, 7-[3-(4-Chloro-phenoxy)-benzyl]-2,7-diaza-spiro[3.5]nonane-2-carboxylic acid (6-[1,2,4]triazol-1-yl-pyridin-3-yl)-amide, trifluoroacetic acid salt], the IC50 in assay [1] (read-out: Assay 2 IC50) and in assay [2] (read-out: Assay 1 IC50) was 1 µM throughout.
With `O=C(Nc1ccc(Cl)nc1)N1CC2(CCN(Cc3cccc(Oc4ccc(Cl)cc4)c3)CC2)C1` [Example 48, 7-[3-(4-Chloro-phenoxy)-benzyl]-2,7-diaza-spiro[3.5]nonane-2-carboxylic acid (6-chloro-pyridin-3-yl)-amide, trifluoroacetic acid salt], the IC50 in assay [1] (read-out: Assay 2 IC50) was found to be 8 µM; in assay [2] (read-out: Assay 1 IC50), 1.5 µM.
For the compound `COc1ccc(NC(=O)N2CC3(CCN(Cc4cccc(Oc5ccc(Cl)cc5)c4)CC3)C2)cn1` [Example 49, 7-[3-(4-Chloro-phenoxy)-benzyl]-2,7-diaza-spiro[3.5]nonane-2-carboxylic acid (6-methoxy-pyridin-3-yl)-amide, trifluoroacetic acid salt], the results for the IC50 in assay [1] (read-out: Assay 2 IC50) and in assay [2] (read-out: Assay 1 IC50) were 8 µM and 1.8 µM, respectively.
Take `N#Cc1ccc(NC(=O)N2CC3(CCN(Cc4cccc(Oc5ccc(Cl)cc5)c4)CC3)C2)cn1` [Example 50, 7-[3-(4-Chloro-phenoxy)-benzyl]-2,7-diaza-spiro[3.5]nonane-2-carboxylic acid (6-cyano-pyridin-3-yl)-amide, trifluoroacetic acid salt]: the concentration for half-maximal inhibition (IC50) turned out to be 8 µM in assay [1] (read-out: Assay 2 IC50) and 0.82 µM in assay [2] (read-out: Assay 1 IC50).
`O=C(Nc1cccc2nonc12)N1CC2(CCN(Cc3cccc(Oc4ccc(Cl)cc4)c3)CC2)C1` [Example 52, 7-[3-(4-Chloro-phenoxy)-benzyl]-2,7-diaza-spiro[3.5]nonane-2-carboxylic acid benzo[1,2,5]oxadiazol-4-ylamide, trifluoroacetic acid salt]: the IC50 in assay [1] (read-out: Assay 2 IC50) was determined as 0.67 µM; in assay [2] (read-out: Assay 1 IC50), 0.66 µM.
